The test deals with H460 cells. Put plainly: Proliferation assay in H460 cells (2 hr exposure, AlamarBlue). The format is cell-based, human. The conditions noted are these: wash, 70 hrs growth, read-out: IC 50 in proliferation assay in H460 cells. The method, then: In vitro proliferation data on the H460 […] human tumor cell line is reported above in the compound table.
Specifically, exponentially growing cells were seeded at a density of 4×10^3 cells per well in a 96 well plate and incubated at 37° C. in 5% CO2, 95% air and 100% relative humidity for 24 hours prior to addition of test compounds. Compounds were solubilized in 100% DMSO at 200 times the desired final test concentration. At the time of drug addition, compounds were further diluted to 4 times the desired final concentration with complete medium. Aliquots of 50 μl of compound at specified concentrations were added to microtiter wells already containing 150 μl of medium, resulting in the final drug concentration reported. After drug addition, the plates were incubated for an additional 2 hours at 37° C., 5% CO2, 95% air, and 100% relative humidity, then the drug was washed off and fresh medium was added and the plates were incubated for addition 70 hrs at 37° C., 5% CO2, 95% air and 100% relative humidity. At the end of this incubation, the viable cells were quantified using the AlamarBlue assay. The drug concentration resulting in growth inhibition of 50% (IC50) was calculated using Prism software (Irvine, Calif.), and the results were listed in the table.
For orientation: The colour change of resazurin is a common sign of viable cells or microbes.

Setting [1] is: Homo sapiens, NCI-H460, 2 hrs exposure.

pIC50: −log10 of the molar value. Like-named read-outs stand apart in the source and are kept apart here.

Consider `O=[N+]([O-])c1ccc(COP(=O)(N2CC2)N2CC2)cc1Oc1ccc2ocnc2c1` [Compound 2915], for which the pIC50 under setting [1] was 7.05.

Consider `Cn1ncc2ccc(Oc3cc(COP(=O)(N4CC4)N4CC4)ccc3[N+](=O)[O-])cc21` [Compound 2918], for which, under setting [1], the pIC50 was 8.52.

With `O=[N+]([O-])c1ccc(COP(=O)(N2CC2)N2CC2)cc1Oc1ccc(F)nc1` [Compound 2892], under setting [1], the pIC50 was 8.70.

As for `CC(OP(=O)(N1CC1)N1CC1)c1ccc([N+](=O)[O-])c(Oc2ccc(C#N)cc2)c1` (stereo not drawn) [Compound 2872], the pIC50 under setting [1] was 7.52.

Turning to `O=[N+]([O-])c1ccc(COP(=O)(N2CC2)N2CC2)cc1Oc1cccc2ccccc12` [Compound 2966], under setting [1], the pIC50 was 6.70.

As to `CC(OP(=O)(N1CC1)N1CC1)c1ccc([N+](=O)[O-])c(Oc2ccc(C(N)=O)cc2)c1` (stereo not drawn) [Compound 2923], under setting [1], the pIC50 was 7.70.

As for `O=[N+]([O-])c1ccc(COP(=O)(N2CC2)N2CC2)cc1Oc1cccc2ncccc12` [Compound 2967], under setting [1], the pIC50 is 7.00.

For `CC(OP(=O)(N1CC1)N1CC1)c1ccc([N+](=O)[O-])c(Oc2cccc([N+](=O)[O-])c2)c1` (stereo not drawn) [Compound 2922], the pIC50 (2 hrs exposure) is 8.52.

As for `CC(OP(=O)(N1CC1)N1CC1)c1ccc([N+](=O)[O-])c(Oc2ccc(F)nc2)c1` (stereo not drawn) [Compound 2893], the pIC50 under setting [1] was 7.70.

In the case of `CNS(=O)(=O)c1ccc(Oc2cc(C(C)OP(=O)(N3CC3)N3CC3)ccc2[N+](=O)[O-])cc1` (stereo not drawn) [Compound 2902], the pIC50 under setting [1] was 7.05.

On to `CC(OP(=O)(N1CC1)N1CC1)c1ccc([N+](=O)[O-])c(Oc2ccc(Cl)cc2Cl)c1` (stereo not drawn) [Compound 2864], for which, under setting [1], the pIC50 was 7.70.

As for `O=[N+]([O-])c1ccc(COP(=O)(N2CC2)N2CC2)cc1Oc1ccc(-c2ccncc2)cc1` [Compound 3050], the pIC50 under setting [1] was 8.00.

Consider `CC(OP(=O)(N1CC1)N1CC1)c1ccc([N+](=O)[O-])c(Oc2ccc(Cl)cc2)c1` (stereo not drawn) [Compound 2860], for which the pIC50 under setting [1] was 8.00.

With `CC(OP(=O)(N1CC1)N1CC1)c1ccc([N+](=O)[O-])c(Oc2ccc3cccnc3c2)c1` (stereo not drawn) [Compound 2957], the pIC50 under setting [1] was 7.40.

As for `N#C/C(=N\Oc1cc(COP(=O)(N2CC2)N2CC2)ccc1[N+](=O)[O-])c1ccccc1` [Compound 2948], the pIC50 under setting [1] is 7.40.

Consider `CCOC(=O)c1ccc(Oc2cc(COP(=O)(N3CC3)N3CC3)ccc2[N+](=O)[O-])cc1` [Compound 2876], for which, under setting [1], the pIC50 was 8.52.

Regarding `CC(OP(=O)(N1CC1)N1CC1)c1ccc([N+](=O)[O-])c(Oc2ccc3ocnc3c2)c1` (stereo not drawn) [Compound 2914], under setting [1], the pIC50 was 7.52.

`CC(OP(=O)(N1CC1)N1CC1)c1ccc([N+](=O)[O-])c(Oc2ccccc2F)c1` (stereo not drawn) [Compound 2865]: the pIC50 under setting [1] is 7.52.

Regarding `Cc1ccc(Oc2cc(C(C)OP(=O)(N3CC3)N3CC3)ccc2[N+](=O)[O-])cc1` (stereo not drawn) [Compound 3030], the pIC50 under setting [1] was 7.70.

Take `O=[N+]([O-])c1ccc(COP(=O)(N2CC2)N2CC2)cc1Oc1cccnc1` [Compound 2877]: under setting [1], the pIC50 was 7.70.

On to `CNC(=O)c1cccc(Oc2cc(COP(=O)(N3CC3)N3CC3)ccc2[N+](=O)[O-])c1` [Compound 2937], for which the pIC50 under setting [1] is 8.70.

Turning to `CC(OP(=O)(N1CC1)N1CC1)c1ccc(Oc2ccccc2)c([N+](=O)[O-])c1` (stereo not drawn) [Compound 2906, reference compound], the pIC50 under setting [1] was 5.40.

`CC(OP(=O)(N1CC1)N1CC1)c1ccc([N+](=O)[O-])c(Oc2ccc(C(=O)N(C)c3ccccc3)cc2)c1` (stereo not drawn) [Compound 2978]: the pIC50 under setting [1] is 8.70.

As for `CNC(=O)c1cccc(Oc2cc(C(C)OP(=O)(N3CC3)N3CC3)ccc2[N+](=O)[O-])c1` (stereo not drawn) [Compound 2884], the pIC50 under setting [1] was 8.00.

With `CC(OP(=O)(N1CC1)N1CC1)c1ccc([N+](=O)[O-])c(Oc2ccc3c(cnn3C)c2)c1` (stereo not drawn) [Compound 2919], the pIC50 under setting [1] was 8.40.

With `CC(OP(=O)(N1CC1)N1CC1)c1ccc([N+](=O)[O-])c(Oc2cccc(N(C)C)c2)c1` (stereo not drawn) [Compound 2855], the pIC50 under setting [1] is 7.52.

Regarding `O=[N+]([O-])c1ccc(COP(=O)(N2CC2)N2CC2)cc1Oc1ccccn1` [Compound 2875], the pIC50 under setting [1] is 5.49.

For `CNC(=O)c1ccccc1Oc1cc(C(C)OP(=O)(N2CC2)N2CC2)ccc1[N+](=O)[O-]` (stereo not drawn) [Compound 2910], the pIC50 under setting [1] is 5.46.

Take `CNC(=O)c1ccc(Oc2cc(C(C)OP(=O)(N3CC3)N3CC3)ccc2[N+](=O)[O-])cc1` (stereo not drawn) [Compound 2909]: the pIC50 under setting [1] was 8.00.

As for `O=[N+]([O-])c1ccc(COP(=O)(N2CC2)N2CC2)c(Oc2ccccc2)c1` [Compound 2960], the pIC50 under setting [1] is 5.80.

On to `Nc1ccc(Oc2cc(COP(=O)(N3CC3)N3CC3)ccc2[N+](=O)[O-])cc1` [Compound 2896], for which, under setting [1], the pIC50 was 7.00.

For `O=[N+]([O-])c1ccc(COP(=O)(N2CC2)N2CC2)cc1Oc1ccc(-c2nccs2)cc1` [Compound 2899], under setting [1], the pIC50 was 8.40.

Regarding `O=[N+]([O-])c1ccc(COP(=O)(N2CC2)N2CC2)cc1Oc1ccc2ncccc2c1` [Compound 2971], the pIC50 under setting [1] is 8.52.

Consider `CCOC(=O)c1cccc(Oc2cc(C(C)OP(=O)(N3CC3)N3CC3)ccc2[N+](=O)[O-])c1` (stereo not drawn) [Compound 2854], for which the pIC50 under setting [1] was over 8.30.

As for `CC(OP(=O)(N1CC1)N1CC1)c1ccc([N+](=O)[O-])c(Oc2ccccn2)c1` (stereo not drawn) [Compound 2874], the pIC50 under setting [1] is 6.30.

As for `CC(OP(=O)(N1CC1)N1CC1)c1ccc([N+](=O)[O-])c(Oc2ccc(S(=O)(=O)N(C)C)cc2)c1` (stereo not drawn) [Compound 2881], the pIC50 under setting [1] was 7.52.

For `Cc1nc2cc(Oc3cc(C(C)OP(=O)(N4CC4)N4CC4)ccc3[N+](=O)[O-])ccc2s1` (stereo not drawn) [Compound 2928], the pIC50 under setting [1] is 7.52.

In the case of `CC(OP(=O)(N1CC1)N1CC1)c1ccc([N+](=O)[O-])c(Oc2ccc(C(C)(C)C)cc2)c1` (stereo not drawn) [Compound 3034], the pIC50 under setting [1] was 8.10.

As to `CC(OP(=O)(N1CC1)N1CC1)c1ccc([N+](=O)[O-])c(O/N=C(\C#N)c2ccccc2)c1` (stereo not drawn) [Compound 2947], the pIC50 under setting [1] was 6.70.

Take `CC(OP(=O)(N1CC1)N1CC1)c1ccc([N+](=O)[O-])c(Oc2cccc(C(=O)N3CCCC3)c2)c1` (stereo not drawn) [Compound 2984]: under setting [1], the pIC50 is 8.30.

For the compound `O=[N+]([O-])c1ccc(COP(=O)(N2CC2)N2CC2)cc1Oc1cnc2ccccc2c1` [Compound 2969], the pIC50 under setting [1] is 8.70.

In the case of `CC(OP(=O)(N1CC1)N1CC1)c1ccc([N+](=O)[O-])c(Oc2ccc(NS(C)(=O)=O)cc2)c1` (stereo not drawn) [Compound 2912], the pIC50 under setting [1] was 7.40.

Regarding `CC(OP(=O)(N1CC1)N1CC1)c1ccc([N+](=O)[O-])c(Oc2ccc([N+](=O)[O-])cc2)c1` (stereo not drawn) [Compound 2935], under setting [1], the pIC50 is 7.70.

In the case of `CC(OP(=O)(N1CC1)N1CC1)c1ccc([N+](=O)[O-])c(Oc2ccc(S(=O)(=O)Nc3ccc(F)cc3)cc2)c1` (stereo not drawn) [Compound 2916], the pIC50 under setting [1] was 6.92.

As for `CCN(CC)C(=O)c1cccc(Oc2cc(C(C)OP(=O)(N3CC3)N3CC3)ccc2[N+](=O)[O-])c1` (stereo not drawn) [Compound 2985], under setting [1], the pIC50 was 8.40.

For the compound `CNS(=O)(=O)c1ccc(Oc2cc(COP(=O)(N3CC3)N3CC3)ccc2[N+](=O)[O-])cc1` [Compound 2903], the pIC50 under setting [1] was 7.52.

With `CC(OP(=O)(N1CC1)N1CC1)c1ccc([N+](=O)[O-])c(Oc2cccc(-c3ccccc3)c2)c1` (stereo not drawn) [Compound 2991], the pIC50 under setting [1] is 8.22.

In the case of `CS(=O)(=O)c1ccccc1Oc1cc(COP(=O)(N2CC2)N2CC2)ccc1[N+](=O)[O-]` [Compound 2981], the pIC50 under setting [1] is 5.43.
